Experimental data: US20070014757A1, “Compositions and complexes containing a macromolecular compound as potential anti-inflammatory agents” (COUNCIL OF SCIENTIFIC AND INDUSTRIAL RESEARCH, priority 2002, published 2007)
Like-named read-outs stand apart in the source and are kept apart here. Each block holds one molecule with its values, some of them ahead of it.

Experiments:
[1] = tested on: cotton pellet granuloma in rats; assay: Cotton pellet test in rats (sub-acute model); format: in vivo; settings: granuloma dry weight vs control, dosed once a day, day 1 to 7; I 1.4 mg/kg, D 12 mg/kg, DI 1.4 mg/kg I + 12 mg/kg D
Description: Cotton pellet test in rats: Four autoclaved pellets of cotton weighing 10 mg±0.5 mg were implanted on the previously shaved groin and axilla (two cotton pellet in each) region of rats aseptically. The test formulations (D,I and DI) were fed once a day from 1 to 7 of the experiment. On the day 8 th, the rats were etherized by an overdose of ether and the pellets surrounded by granuloma tissue wre dissected out carefully and dried in a hot oven at 60° C. till a constant weight was obtained. Ulcers were not found in any of the case. After dissection various organs were removed, washed, dried and weighed and histopathology was carried out. No abnormalities were found after conducting the histopathology of liver, lung, kidney and spleen.
The subcutaneous implantation of cotton pellets provides inflammatory exudates that are easily processed. Implantation of cotton pellet triggers the series of cascade inflammatory reaction, leads to the migration of mediators of the inflammation in the zone of implantation.

[2] = tested on: Adjuvant-induced arthritis in rats; assay: Adjuvant-induced arthritis in rats (chronic model); format: in vivo; settings: foot swelling, daily dosing I 1 mg/kg, D 9 mg/kg, DI 1 mg/kg I + 9 mg/kg D
Description: Rats were sacrificed. After dissection various organs were removed, washed, dried and weighed. Ulcers were not observed in any of the cases.
The body weight and feed intake of rats were monitored regularly. Weight gain has also been used as a parameter for assessing drug effectiveness.

[3] = Phase solubility study of indomethacin in aqueous dendrimer solutions; format: physicochemical; settings: indomethacin with PAMAM (fourth generation), 25° C.
Description: Solubility studies were carried out as described by Higuchi and Connors with minor modifications.
Solubility phase diagram depicts the AN type of curve (FIG. 2), which represent a decreasing dependence on the ligand added at higher concentration. This type is comparatively least frequently encountered system, and its occurrence may be explained on the basis of self-association of the ligand at high concentration, which is in contrast to the curve reported by Emanuele et al, for dendrimer using ibuprofen. The negative slope in the curve may be due to the aggregation of dendrimer with the increasing concentration.

[4] = Comparative behavior of dendrimer and indomethacin at different pH (solubility); format: physicochemical
Description: To study the comparative behavior of dendrimer and indometacin at different pH two possibilities were tried. […] The pH of the aqueous solutions of dendrimer was adjusted using 0.1 N HCl and 1M NaOH. […] To the aqueous solutions of various pH (pH-2, 4 7, 8 and 10), dendrimer was added at different percentage. (0.075, 0.15, 0.2). pH was measured in each case. […] The amines of dendrimer will show maximum ionization at acidic pH and minimum ionization at basic pH. […] (initial pH).

[5] = Hematological parameters in arthritic rats (blood cell counter)
Description: (§1) Hematological parameters were determined by blood cell counter (Medonic CA 620).

[6] = rat, in vivo
Description: as §1

type of phase solubility profile [3]: AN type of solubility profile
solubility of indomethacin on addition of dendrimer (in words) ([4]; case-A: filtered saturated solution of indomethacin): found to be decrease
solubility of indomethacin on addition of dendrimer (in words) ([4]; case-B: suspension with un-dissolved drug, dendrimer 0.075%, 0.15%, 0.2%): further increased
Haematocrit [5]: 30.3%
Hemoglobin concentration [5]: 11.6 gm/dl
Large platelets [5]: 8.05%
Mean Platelet Cell Volume [5]: 6.55 um^3
Mean cell hemoglobin [5]: 19.9 pg
Mean cell hemoglobin concentration [5]: 38.2 g/dL
Mean cell volume for red blood cell [5]: 52 um^3
Packed platelet volume [5]: 0.51%
Platelet distribution width [5]: 8.63 um^3
Platelets [5]: 778 10^3\mm^3
Red blood cell [5]: 5.87 10^6/mm^3
Red cell distribution width [5]: 18.9%
Red cell distribution width absolute [5]: 44.1 um^3
White blood cells [5]: 8.85 10^3/mm^3
Molecule: COc1ccc2c(c1)c(CC(=O)O)c(C)n2C(=O)c1ccc(Cl)cc1 [I, Indomethacin]
Mean Percentage Inhibition ± SE [1]: 22 ± 1.2%
Mean Percentage Inhibition ± SE ([2]; +1 day): 17 ± 0.9%
Mean Percentage Inhibition ± SE ([2]; +3 day): 18 ± 0.7%
Mean Percentage Inhibition ± SE ([2]; +5 day): 9 ± 0.6%
Mean Percentage Inhibition ± SE ([2]; +7 day): 9 ± 0.8%
Mean Percentage Inhibition ± SE ([2]; +10 day): 8 ± 0.6%
Mean Percentage Inhibition ± SE ([2]; +12 day): 10 ± 0.9%
Mean Percentage Inhibition ± SE ([2]; +14 day): 11 ± 0.9%

Haematocrit [6]: 37.3%
Hemoglobin concentration [6]: 11.3 gm/dl
Large platelets [6]: 7.75%
Mean Platelet Cell Volume [6]: 6.5 um^3
Mean cell hemoglobin [6]: 18.9 pg
Mean cell hemoglobin concentration [6]: 38 g/dL
Mean cell volume for red blood cell [6]: 49.7 um^3
Packed platelet volume [6]: 0.45%
Platelet distribution width [6]: 8.6 um^3
Platelets [6]: 700 10^3\mm^3
Red blood cell [6]: 6 10^6/mm^3
Red cell distribution width [6]: 14.9%
Red cell distribution width absolute [6]: 36.3 um^3
White blood cells [6]: 8.78 10^3/mm^3
Molecule: NH2 terminated PAMAM dendrimer (EDA core) generation 4
